Source: patent publication US20250136606A1, “MODULATORS OF TRPML, THEIR COMPOSITIONS AND METHODS OF USE” (Caraway Therapeutics, Inc., priority 2021, published 2025)
Where two headings read alike, the source gives them in different places.

How the values were obtained:
Assay type in all cases: cell-based
TRPML3 = target: T1, TRPML3 (Homo sapiens, UniProt Q8TDD5); assay: Fluorescent TRPML3 assay (performed as for TRPML1, substituting the TRPML3 subtype)
T1 construct: expressed in transfected cells
T1 sequence (Q8TDD5 1-553): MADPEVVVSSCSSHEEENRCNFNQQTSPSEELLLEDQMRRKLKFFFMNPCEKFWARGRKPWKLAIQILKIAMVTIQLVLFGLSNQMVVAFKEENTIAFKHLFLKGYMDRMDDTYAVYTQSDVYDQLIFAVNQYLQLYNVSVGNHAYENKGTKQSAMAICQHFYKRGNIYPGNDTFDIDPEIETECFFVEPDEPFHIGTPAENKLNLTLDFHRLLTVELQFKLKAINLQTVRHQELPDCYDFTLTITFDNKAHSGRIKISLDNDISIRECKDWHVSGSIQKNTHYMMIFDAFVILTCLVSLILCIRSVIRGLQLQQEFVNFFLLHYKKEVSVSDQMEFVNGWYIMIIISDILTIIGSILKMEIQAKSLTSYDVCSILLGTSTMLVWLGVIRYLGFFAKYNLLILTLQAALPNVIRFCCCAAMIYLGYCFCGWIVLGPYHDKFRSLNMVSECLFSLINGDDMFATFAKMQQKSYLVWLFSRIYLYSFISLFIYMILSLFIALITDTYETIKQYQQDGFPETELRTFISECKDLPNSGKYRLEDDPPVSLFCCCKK
Procedure, shortened: (§1)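 Calcium-influx readout: Fluo4 fluorescence at 480/540 nm, normalised to positive and negative controls per plate, EC50 fitted by non-linear regression. Cells were HEK-293 Trex stable lines, channel expression induced overnight with 0.5 ug/mL doxycycline; tested at 20 micromolar down to 6 nanomolar final, half-log steps, triplicate.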

TRPML2 = target: T2, TRPML2 (Homo sapiens, UniProt Q8IZK6); assay: Fluorescent TRPML2 assay (performed as for TRPML1, substituting the TRPML2 subtype)
T2 construct: expressed in transfected cells
T2 sequence (Q8IZK6 1-566): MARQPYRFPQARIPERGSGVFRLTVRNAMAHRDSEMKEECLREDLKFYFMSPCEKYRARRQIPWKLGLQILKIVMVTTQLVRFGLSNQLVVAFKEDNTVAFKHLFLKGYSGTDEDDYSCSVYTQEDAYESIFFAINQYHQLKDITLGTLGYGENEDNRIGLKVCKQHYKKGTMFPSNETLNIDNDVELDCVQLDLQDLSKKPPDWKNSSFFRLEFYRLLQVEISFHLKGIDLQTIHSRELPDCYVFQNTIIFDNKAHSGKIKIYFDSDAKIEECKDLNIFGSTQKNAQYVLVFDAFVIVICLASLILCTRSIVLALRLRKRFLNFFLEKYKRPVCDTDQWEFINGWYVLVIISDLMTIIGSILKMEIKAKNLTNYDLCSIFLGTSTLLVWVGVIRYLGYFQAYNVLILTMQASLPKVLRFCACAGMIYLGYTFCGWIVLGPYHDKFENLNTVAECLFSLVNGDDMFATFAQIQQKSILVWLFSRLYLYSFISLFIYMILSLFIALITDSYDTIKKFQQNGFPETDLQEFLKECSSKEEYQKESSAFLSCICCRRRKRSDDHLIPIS
Procedure, shortened: as §1

TRPML1 = TRPML1 (Homo sapiens, UniProt Q9GZU1); assay: Fluorescent TRPML1 assay (Fluo4-AM calcium fluorescence in doxycycline-induced HEK-293 Trex cells)
Chain of TRPML1 (Q9GZU1 whole entry L15A/L16A/L577A/L578A, form open): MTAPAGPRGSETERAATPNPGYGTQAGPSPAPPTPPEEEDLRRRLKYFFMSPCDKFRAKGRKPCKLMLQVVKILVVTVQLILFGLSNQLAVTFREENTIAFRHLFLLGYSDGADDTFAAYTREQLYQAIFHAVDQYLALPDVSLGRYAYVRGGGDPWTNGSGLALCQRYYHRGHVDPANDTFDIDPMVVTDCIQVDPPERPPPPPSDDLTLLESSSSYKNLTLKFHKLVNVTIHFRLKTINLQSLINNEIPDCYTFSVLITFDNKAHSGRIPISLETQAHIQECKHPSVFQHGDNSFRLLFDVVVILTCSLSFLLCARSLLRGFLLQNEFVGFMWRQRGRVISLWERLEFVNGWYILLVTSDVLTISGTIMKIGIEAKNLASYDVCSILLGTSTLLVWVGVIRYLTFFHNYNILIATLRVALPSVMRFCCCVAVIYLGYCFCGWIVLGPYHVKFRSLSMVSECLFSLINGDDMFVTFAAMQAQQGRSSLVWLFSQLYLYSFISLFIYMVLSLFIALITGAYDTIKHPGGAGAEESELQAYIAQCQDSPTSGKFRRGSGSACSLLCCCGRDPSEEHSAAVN
Procedure, shortened: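 First, expression of surface-targeted mutant human TRPML1 is induced in HEK-293 Trex cells with 0.5 ug/mL doxycycline the day before. Next, cells take up 1 micromolar Fluo4-AM in Ringer's with 0.1% Pluronic. Finally, they are added to compounds (6 nanomolar–20 micromolar final) in 10 mM calcium Ringer's and fluorescence is read.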

Row | SMILES | EC50 (TRPML3) | EC50 (TRPML2) | EC50 (TRPML1) | EC50 (TRPML3; fluorescent calcium assay) | EC50 (TRPML2; fluorescent calcium assay) | EC50 (TRPML1; fluorescent calcium assay)
1 | CC1CC1c1cn(-c2cc(C#N)ccn2)c2ncnc(N3CCN(C(=O)OC(C)(C)C)C[C@@H]3C)c12 (stereo partly drawn) [Compound 615, tert-butyl (3S)-4-(7-(4-cyanopyridin-2-yl)-5-(2-methylcyclopropyl)-7H-pyrrolo[2,3-d]pyrimidin-4-yl)-3-methylpiperazine-1-carboxylate] | < 100 nM | < 100 nM | < 100 nM | – | – | –
2 | Cc1nccnc1-c1cn(-c2ccc(F)cc2)c2ncnc(N3C[C@@H](C)N(C(=O)OC(C)(C)C)C[C@@H]3C)c12 [Compound 181, tert-butyl (2R,5S)-4-(7-(4-fluorophenyl)-5-(3-methylpyrazin-2-yl)-7H-pyrrolo[2,3-d]pyrimidin-4-yl)-2,5-dimethylpiperazine-1-carboxylate] | – | – | – | 100 to 500 nM | 500 to 2000 nM | 100 to 500 nM
3 | CCOC(=O)N1C[C@H](C)N(c2ncnc3c2c(C2CC2)cn3-c2cccc(Cl)c2)C[C@H]1C [Compound 132, Ethyl (2R,5S)-4-(7-(3-chlorophenyl)-5-cyclopropyl-7H-pyrrolo[2,3-d]pyrimidin-4-yl)-2,5-dimethylpiperazine-1-carboxylate] | – | – | – | 100 to 500 nM | > 2000 nM | < 100 nM
4 | C[C@H]1CN(C(=O)OC(C)(C)C(F)(F)F)CCN1c1ncnc2c1c(-c1cncnc1)cn2-c1cc(C#N)ccn1 [Compound 335] | – | – | – | < 100 nM | 500 to 2000 nM | < 100 nM
5 | C[C@H]1CN(C(=O)OC(C)(C)C)CCN1c1ncnc2c1c(N1CCCC1)cn2C1CCCC1 [Compound 338, tert-butyl (S)-4-(7-cyclopentyl-5-(pyrrolidin-1-yl)-7H-pyrrolo[2,3-d]pyrimidin-4-yl)-3-methylpiperazine-1-carboxylate] | – | – | – | 500 to 2000 nM | > 2000 nM | 100 to 500 nM
6 | C[C@@H]1CN(c2ncnc3c2c(C(F)(F)F)cn3-c2cc(F)cc(F)c2)[C@@H](C)CN1C(=O)OC(C)(C)C [Compound 492] | – | – | – | < 100 nM | 100 to 500 nM | < 100 nM
7 | Cc1cn(-c2cc(F)cc(Cl)c2)c2ncnc(N3C[C@@H](C)N(C(=O)OC(C)(C)C)C[C@@H]3C)c12 [Compound 677, tert-butyl (2R,5S)-4-(7-(3-chloro-5-fluorophenyl)-5-methyl-7H-pyrrolo[2,3-d]pyrimidin-4-yl)-2,5-dimethylpiperazine-1-carboxylate] | < 100 nM | 100 to 500 nM | < 100 nM | – | – | –
8 | C[C@H]1CN(C(=O)OC(C)(C)C)CCN1c1ncnc2c1c(C1CC1)cn2-c1cc(C#N)cc(OC(F)(F)F)c1 [Compound 303, tert-butyl (S)-4-(7-(3-cyano-5-(trifluoromethoxy)phenyl)-5-cyclopropyl-7H-pyrrolo[2,3-d]pyrimidin-4-yl)-3-methylpiperazine-1-carboxylate] | – | – | – | 100 to 500 nM | 500 to 2000 nM | 100 to 500 nM
9 | C[C@@H]1CN(c2ncnc3c2c(-c2ccccc2F)cn3-c2cncc(C#N)c2)[C@@H](C)CN1C(=O)OC(C)(C)C [Compound 650, tert-butyl (2R,5S)-4-(7-(5-cyanopyridin-3-yl)-5-(2-fluorophenyl)-7H-pyrrolo[2,3-d]pyrimidin-4-yl)-2,5-dimethylpiperazine-1-carboxylate] | < 100 nM | < 100 nM | < 100 nM | – | – | –
10 | CC[C@@H]1CN(c2ncnc3c2c(C2CC2)cn3-c2cc(F)cc(F)c2)CCN1C(=O)OC(C)(C)C [Compound 256, tert-butyl (R)-4-(5-cyclopropyl-7-(3,5-difluorophenyl)-7H-pyrrolo[2,3-d]pyrimidin-4-yl)-2-ethylpiperazine-1-carboxylate] | – | – | – | < 100 nM | 500 to 2000 nM | < 100 nM
11 | [2H]C([2H])([2H])[C@@H]1CN(c2ncnc3c2c(C(F)F)cn3-c2cc(C#N)ccn2)[C@@H](C)CN1C(=O)OC(C)(C)C [Compound 610, tert-butyl (2R,5S)-4-(7-(4-cyanopyridin-2-yl)-5-(difluoromethyl)-7H-pyrrolo[2,3-d]pyrimidin-4-yl)-5-methyl-2-(methyl-d3)piperazine-1-carboxylate] | < 100 nM | 500 to 2000 nM | < 100 nM | – | – | –
12 | C[C@@H]1CN(c2nccc3c2c(C2CC2)cn3-c2cccc(F)c2)CCN1C(=O)OC(C)(C)C [Compound 704, tert-butyl (R)-4-(3-cyclopropyl-1-(3-fluorophenyl)-1H-pyrrolo[3,2-c]pyridin-4-yl)-2-methylpiperazine-1-carboxylate] | < 100 nM | < 100 nM | < 100 nM | – | – | –
13 | C[C@@H]1CN(c2ncnc3c2c(C2CC2)nn3-c2cc(F)cc(F)c2)CCN1C(=O)OC(C)(C)C [Compound 239, tert-butyl (R)-4-(3-cyclopropyl-1-(3,5-difluorophenyl)-1H-pyrazolo[3,4-d]pyrimidin-4-yl)-2-methylpiperazine-1-carboxylate] | – | – | – | < 100 nM | 500 to 2000 nM | < 100 nM
14 | CC(C)(C)OC(=O)N1CCN(c2ncnc3c2c(C2CCOCC2)cn3-c2cccc(Cl)c2)CC1 [Compound 465, tert-butyl 4-(7-(3-chlorophenyl)-5-(tetrahydro-2H-pyran-4-yl)-7H-pyrrolo[2,3-d]pyrimidin-4-yl)piperazine-1-carboxylate] | – | – | – | < 100 nM | 500 to 2000 nM | 100 to 500 nM
15 | C[C@H]1CN(C(=O)OC(C)(C)C)CCN1c1ncnc2c1c(N1CCC[C@@H]1CO)cn2-c1cc(F)cc(F)c1 [Compound 307, tert-butyl (S)-4-(7-(3,5-difluorophenyl)-5-((R)-2-(hydroxymethyl)pyrrolidin-1-yl)-7H-pyrrolo[2,3-d]pyrimidin-4-yl)-3-methylpiperazine-1-carboxylate] | – | – | – | < 100 nM | 500 to 2000 nM | 500 to 2000 nM
16 | C[C@@H]1CN(C(=O)OC(C)(C)C)CCN1c1ncnc2c1c(-c1ccccc1F)cn2-c1cc(C#N)ccn1 [Compound 389, tert-butyl (R)-4-(7-(4-cyanopyridin-2-yl)-5-(2-fluorophenyl)-7H-pyrrolo[2,3-d]pyrimidin-4-yl)-3-methylpiperazine-1-carboxylate] | – | – | – | < 100 nM | 100 to 500 nM | 500 to 2000 nM
17 | Cc1ccnc(-n2cc(-c3ccccc3F)c3c(N4C[C@@H](C)N(C(=O)OC(C)(C)C)C[C@@H]4C)ncnc32)c1 [Compound 136, tert-butyl (2R,5S)-4-(5-(2-fluorophenyl)-7-(4-methylpyridin-2-yl)-7H-pyrrolo[2,3-d]pyrimidin-4-yl)-2,5-dimethylpiperazine-1-carboxylate] | – | – | – | < 100 nM | < 100 nM | < 100 nM
18 | CCCN(CC)c1cn(-c2cc(C#N)ccn2)c2ncnc(N3CCN(C(=O)OC(C)(C)C)C[C@@H]3C)c12 [Compound 423, tert-butyl (S)-4-(7-(4-cyanopyridin-2-yl)-5-(ethyl(propyl)amino)-7H-pyrrolo[2,3-d]pyrimidin-4-yl)-3-methylpiperazine-1-carboxylate] | – | – | – | < 100 nM | < 100 nM | < 100 nM
19 | CC(C)(C)OC(=O)N1CCN(c2ncnc3c2c(C2CC2)cn3-c2ccc(Cl)c(F)c2)CC1 [Compound 145, tert-butyl 4-(7-(4-chloro-3-fluorophenyl)-5-cyclopropyl-7H-pyrrolo[2,3-d]pyrimidin-4-yl)piperazine-1-carboxylate] | – | – | – | < 100 nM | < 100 nM | 100 to 500 nM
